In ChEMBL document CHEMBL5260810, “Inhibition of bromodomain-containing protein 9 for the prevention of epigenetically-defined drug resistance” (Bioorg Med Chem Lett, 2017):

Columns and labels:
Assay type in all cases: functional, cell-based
EL4 = assay: Cytotoxicity against mouse EL4 cells measured after 8 days; conditions: EL4, 192 h
JJN-3 = assay: Cytotoxicity against human JJN-3 cells measured after 8 days; conditions: JJN-3, 192 h
[1] = Cytotoxicity against human NCI-H2135 cells measured after 8 days; conditions: NCI-H2135, 192 h
MG-63 = assay: Cytotoxicity against human MG-63 cells measured after 8 days; conditions: MG-63, 192 h
NCI-H929 = assay: Cytotoxicity against human NCI-H929 cells measured after 8 days; conditions: NCI-H929, 192 h
[2] = Cytotoxicity against human NCE-G 120 cells measured after 8 days; conditions: NCE-G 120, 192 h
[3] = Cytotoxicity against human NCE-G 122 cells measured after 8 days; conditions: NCE-G 122, 192 h
[4] = Cytotoxicity against human NCE-G 130 cells measured after 8 days; conditions: NCE-G 130, 192 h
[5] = Cytotoxicity against human NCE-G 142 cells measured after 8 days; conditions: NCE-G 142, 192 h
[6] = Cytotoxicity against human NCE-G 44 cells measured after 8 days; conditions: NCE-G 44, 192 h
Hs 683 = assay: Cytotoxicity against human Hs 683 cells measured after 8 days; conditions: Hs 683, 192 h
[7] = Cytotoxicity against human Kelly cells measured after 8 days; conditions: 192 h
SF-268 = assay: Cytotoxicity against human SF-268 cells measured after 8 days; conditions: SF-268, 192 h
BHY = assay: Cytotoxicity against human BHY cells measured after 8 days; conditions: 192 h
[8] = Cytotoxicity against human COLO-704 cells measured after 8 days; conditions: COLO 704, 192 h
CAL-148 = assay: Cytotoxicity against human CAL-148 cells measured after 8 days; conditions: CAL-148, 192 h
OV-90 = assay: Cytotoxicity against human OV-90 cells measured after 8 days; conditions: OV-90, 192 h
[9] = Cytotoxicity against human OV56 cells measured after 8 days; conditions: OV56, 192 h
[10] = Cytotoxicity against human OVCA432 cells measured after 8 days; conditions: OVCA432, 192 h
MCF-10A = assay: Cytotoxicity against human MCF-10A CDH1-/- cells measured after 8 days; conditions: 192 h
PEO1 = assay: Cytotoxicity against human PEO1 cells measured after 8 days; conditions: PEO1, 192 h
TOV21G = assay: Cytotoxicity against human TOV-21G cells measured after 8 days; conditions: 192 h
ASPC1 = assay: Cytotoxicity against human ASPC1 cells measured after 8 days; conditions: ASPC1, 192 h
BOKU = assay: Cytotoxicity against human BOKU cells measured after 8 days; conditions: 192 h
[11] = Cytotoxicity against human HCS-2 cells measured after 8 days; conditions: HCS-2, 192 h
HEp-2 = assay: Cytotoxicity against human HEp-2 cells measured after 8 days; conditions: HEp-2, 192 h
ME-180 = assay: Cytotoxicity against human ME-180 cells measured after 8 days; conditions: ME-180, 192 h
[12] = Cytotoxicity against human SKG-II cells measured after 8 days; conditions: 192 h
[13] = Cytotoxicity against human SKG-IIIb cells measured after 8 days; conditions: 192 h
[14] = Cytotoxicity against human Panc 05.04 cells measured after 8 days; conditions: Panc 05.04, 192 h
[15] = Cytotoxicity against human PK-45H cells measured after 8 days; conditions: 192 h
PSN1 = assay: Cytotoxicity against human PSN1 cells measured after 8 days; conditions: PSN1, 192 h
NCI-H2052 = assay: Cytotoxicity against human NCI-H2052 cells measured after 8 days; conditions: NCI-H2052, 192 h
HT55 = assay: Cytotoxicity against human HT55 cells measured after 8 days; conditions: HT55, 192 h
LS174T = assay: Cytotoxicity against human LS174T cells measured after 8 days; conditions: 192 h
[16] = Cytotoxicity against human PMF-ko14 cells measured after 8 days; conditions: PMF-ko14, 192 h
SW837 = assay: Cytotoxicity against human SW837 cells measured after 8 days; conditions: SW837, 192 h
B16-F10 = assay: Cytotoxicity against mouse B16-F10 Luciferase cells measured after 8 days; conditions: B16-F10, 192 h
T84 = assay: Cytotoxicity against human T84 cells measured after 8 days; conditions: T84, 192 h
[17] = Cytotoxicity against human OE21 cells measured after 8 days; conditions: OE21, 192 h
A498 = assay: Cytotoxicity against human A498 cells measured after 8 days; conditions: A498, 192 h
[18] = Cytotoxicity against human KMRC-1 cells measured after 8 days; conditions: KMRC-1, 192 h
Renca = assay: Cytotoxicity against mouse Renca cells measured after 8 days; conditions: 192 h
[19] = Cytotoxicity against human UM-RC-7 cells measured after 8 days; conditions: UM-RC-7, 192 h
Huh-7 = assay: Cytotoxicity against human Huh-7 cells measured after 8 days; conditions: Huh-7, 192 h
[20] = Cytotoxicity against human JHH-4 cells measured after 8 days; conditions: JHH-4, 192 h
SNU-398 = assay: Cytotoxicity against human SNU-398 cells measured after 8 days; conditions: SNU-398, 192 h
SNU-423 = assay: Cytotoxicity against human SNU-423 cells measured after 8 days; conditions: SNU-423, 192 h
23132-87 = assay: Cytotoxicity against human 23132-87 cells measured after 8 days; conditions: 23132-87, 192 h
AGS = assay: Cytotoxicity against human AGS cells measured after 8 days; conditions: 192 h
MKN-1 = assay: Cytotoxicity against human MKN-1 cells measured after 8 days; conditions: MKN-1, 192 h
[21] = Cytotoxicity against human SNU-484 cells measured after 8 days; conditions: SNU-484, 192 h
SNU-638 = assay: Cytotoxicity against human SNU-638 cells measured after 8 days; conditions: SNU-638, 192 h
[22] = Cytotoxicity against human COR-L26 cells measured after 8 days; conditions: COR-L26, 192 h
BCPAP = assay: Cytotoxicity against human BCPAP cells measured after 8 days; conditions: 192 h
FTC-133 = assay: Cytotoxicity against human FTC-133 cells measured after 8 days; conditions: FTC-133, 192 h
S-117 = assay: Cytotoxicity against human S-117 cells measured after 8 days; conditions: S-117, 192 h
RT-4 = assay: Cytotoxicity against human RT-4 cells measured after 8 days; conditions: RT-4, 192 h
[23] = Cytotoxicity against human UM-UC-1 cells measured after 8 days; conditions: UM-UC-1, 192 h
UMUC3 = assay: Cytotoxicity against human UMUC3 cells measured after 8 days; conditions: UMUC3, 192 h
[24] = Cytotoxicity against human HEC-50B cells measured after 8 days; conditions: 192 h
[25] = Cytotoxicity against human HEC-88nu cells measured after 8 days; conditions: 192 h
KLE = assay: Cytotoxicity against human KLE cells measured after 8 days; conditions: 192 h

C/C=C/Cn1cc(-c2ccc(C(C)(C)O)cc2OC)c2cc[nH]c2c1=O gave an IC50 (EL4) of 20 µM, an IC50 (JJN-3) of 17.6 µM and an IC50 [1] of 20 µM. It also gave an IC50 (MG-63) of 7.4 µM, an IC50 (NCI-H929) of 20 µM and an IC50 [2] of 20 µM. It also gave an IC50 [3] of 20 µM, an IC50 [4] of 20 µM and an IC50 [5] of 20 µM. For the same molecule, the IC50 [6] was 20 µM, the IC50 (Hs 683) was 20 µM and the IC50 [7] was 20 µM. It also gave an IC50 (SF-268) of 20 µM, an IC50 (BHY) of 20 µM and an IC50 [8] of 20 µM. It also gave an IC50 (CAL-148) of 20 µM, an IC50 (OV-90) of 20 µM and an IC50 [9] of 20 µM. For the same molecule, the IC50 [10] was 20 µM, the IC50 (MCF-10A) was 20 µM and the IC50 (PEO1) was 20 µM. For the same molecule, the IC50 (TOV21G) was 20 µM, the IC50 (ASPC1) was 20 µM and the IC50 (BOKU) was 20 µM. It also gave an IC50 [11] of 20 µM, an IC50 (HEp-2) of 20 µM and an IC50 (ME-180) of 20 µM. For the same molecule, the IC50 [12] was 20 µM, the IC50 [13] was 20 µM and the IC50 [14] was 20 µM. It also gave an IC50 [15] of 20 µM, an IC50 (PSN1) of 20 µM and an IC50 (NCI-H2052) of 20 µM. The IC50 (HT55) was 20 µM, the IC50 (LS174T) was 20 µM and the IC50 [16] was 20 µM. For the same molecule, the IC50 (SW837) was 20 µM, the IC50 (B16-F10) was 20 µM and the IC50 (T84) was 20 µM. For the same molecule, the IC50 [17] was 20 µM, the IC50 (A498) was 20 µM and the IC50 [18] was 20 µM. The IC50 (Renca) was 20 µM, the IC50 [19] was 20 µM and the IC50 (Huh-7) was 20 µM. For the same molecule, the IC50 [20] was 20 µM, the IC50 (SNU-398) was 20 µM and the IC50 (SNU-423) was 20 µM. For the same molecule, the IC50 (23132-87) was 20 µM, the IC50 (AGS) was 20 µM and the IC50 (MKN-1) was 20 µM. For the same molecule, the IC50 [21] was 20 µM, the IC50 (SNU-638) was 20 µM and the IC50 [22] was 20 µM. It also gave an IC50 (BCPAP) of 20 µM, an IC50 (FTC-133) of 20 µM and an IC50 (S-117) of 20 µM. It also gave an IC50 (RT-4) of 20 µM, an IC50 [23] of 20 µM and an IC50 (UMUC3) of 20 µM. The IC50 [24] was 20 µM, the IC50 [25] was 20 µM and the IC50 (KLE) was 20 µM.
